Literature values in article PMC8763792, “Pharmacokinetic/Pharmacodynamic Based Breakpoints of Polymyxin B for Bloodstream Infections Caused by Multidrug-Resistant Gram-Negative Pathogens” (Frontiers in Pharmacology, 2022).
Where two headings read alike, the source gives them in different places. Positions of bridges follow the written chain, without caps; N, C: chain ends. Non-standard residues stand in square brackets, D forms with d. Residues, ends and D or L forms follow the SMILES beside them. *: point of attachment. X1 = CC[C@H](C)CCCCC(=O)*; Dab = NCC[C@H](N)C(=O)O

Key:
[1] = system: K. pneumoniae; settings: dash in Table S1 explained, ref Landersdorfer, C.B., 2018
Description: Supplement DataSheet1.zip/Table 1.DOCX, table 1: Table S1.

[2] = Procedure: The area under the unbound concentration-time curve over 24 h to the MIC ratio (fAUC0–24h/MIC) is the most predictive PK/PD index for polymyxins ([Tam et al., 2005]; [Bergen et al., 2008]; [Bergen et al., 2010]; [Cheah et al., 2015]; [Landersdorfer et al., 2018]). PK/PD targets of 1-log10 CFU and 2-log10 CFU reductions in colony forming units (CFU)/thigh were derived from dose-fractionation studies of polymyxin B (K. pneumoniae) and colistin (P. aeruginosa and A. baumannii) in murine thigh infection models (Supplementary Table S1; [Cheah et al., 2015]; [Landersdorfer et al., 2018]). Given poly ... || The recommended dose of intravenously administered polymyxin B throughout much of the world is 1.5–2.5 mg/kg/day with a loading dose of 2–2.5 mg/kg ([Tsuji et al., 2019]). In China, the only brand of polymyxin B currently available has a recommended intravenous dose of 50–100 mg/day (Polymyxin B for injection ([Daily Med, 2017]), equivalent to 0.83–1.66 mg/kg/day (0.42–0.83 mg/kg/12 h) for a 60 kg patient. Importantly, [Lakota et al. (2018)] proposed that for pathogens with MICs ≤2 mg/L, the target AUC0–24h,ss for polymyxin B should be 50–100 mg h/L. In our study, the polymyxin B AUC0–24h,ss a ...
[3] = critically-ill patients, ref Sandri et al., 2013, Nation et al., 2017
Procedure: Removal of the “susceptible” interpretation category for polymyxins by CLSI was driven primarily by lung infection data ([He et al., 2013]; [Landersdorfer et al., 2018]). […] For bloodstream infections, the average steady-state concentrations (C ss,avg) achieved with intravenously administered polymyxin B (0.45–3.38 mg/kg/day) or CMS (2–18 MIU/day) are 2–3 mg/L (polymyxin B and colistin) in critically-ill p ...

[4] = system: extensively-drug resistant Gram-negative bacteria; settings: polymyxin B-based regimens 100-200 mg/day, ≥5 days; bloodstream infection; ref Zhao et al., 2020
Description: This is in agreement with othe ...

[5] = system: A. baumannii or A. calcoaceticus; settings: 3,124 isolates, 45 nations, 1997-2016; ref Diekema et al., 2019
Description: (§1) However, the success of this regimen will depend on regional susceptibility data. According to the SENTRY antimicrobial surveillance program for bloodstream infections (data collected from 45 nations including China between 1997 and 2016) ([Diekema et al., 2019]), the MIC90 of colistin for P. aeruginosa (7,107 isolates), A. baumannii or A. calcoaceticus ...

[6] = system: Enterobacteriaceae; settings: 54,476 isolates, 45 nations, 1997-2016; ref Diekema et al., 2019
Description: as §1

[7] = system: P. aeruginosa; settings: 7,107 isolates, 45 nations, 1997-2016; ref Diekema et al., 2019
Description: as §1

Compound | PK/PD target fAUC0-24h/MIC, 2-log10 CFU killing [1] | Unbound fraction (f) in plasma ([2]; plasma, ref Sandri et al., 2013) [%] | Protein binding ([2]; ref Zavascki et al., 2008) | Average steady-state concentration (Css,avg) ([3]; intravenous polymyxin B 0.45-3.38 mg/kg/day) [ng/mL] | 28-day all-cause mortality [4] [%] | Clearance rate of microorganisms [4] [%] | Overall effectiveness (cure or improvement) [4] [%] | Average steady-state concentration (Css,avg) ([3]; colistin after intravenous CMS 2-18 MIU/day) [ng/mL] | MIC90 [5] [µg/mL] | MIC90 [6] [µg/mL] | MIC90 [7] [µg/mL]
CC[C@H](C)CCCCC(=O)N[C@@H](CCN)C(=O)N[C@H](C(=O)N[C@@H](CCN)C(=O)N[C@H]1CCNC(=O)[C@H]([C@@H](C)O)NC(=O)[C@H](CCN)NC(=O)[C@H](CCN)NC(=O)[C@H](CC(C)C)NC(=O)[C@@H](Cc2ccccc2)NC(=O)[C@H](CCN)NC1=O)[C@@H](C)O [polymyxin B] (X1-[Dab]T[Dab][Dab][Dab][dF]L[Dab][Dab]T; lactam 4-C (inferred); N-terminus assumed) | unable to produce a 2-log10 CFU decrease | 42 | 78.5–92.4% | 2000 to 3000 | 41.0 | 65.2 | 59.0 | – | – | – | –
colistin | – | – | – | – | – | – | – | 2000 to 3000 | 2 | > 4 | 2
